Measurements published in patent publication US20240116921A1, “LACTAM (HETERO)[…] DERIVATIVES AS INHIBITORS OF ERBB2” (EnLiven Therapeutics, Inc., priority 2020, published 2024).
Read-outs that look alike come from different tables or passages of the source.

Legend:
[1] = target: Ba/F3 ERBB2 A775_G776insYVMA (Homo sapiens, UniProt P04626, DUP772-775, cells depend on it); test: Cell viability assay, Ba/F3 ERBB2 A775_G776insYVMA; assay type: cell-based, mouse; settings: Ba/F3 ERBB2 A775_G776insYVMA cells, 72 hours, CellTiter Glo; Tables B2-B4; read-out: IC50, cell viability, Ba/F3 ERBB2 A775_G776insYVMA
Method in brief: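 Viability after 72 h compound treatment (37 °C, 5% CO2) was quantified by CellTiter-Glo luminescence of intracellular ATP, with sigmoidal dose-response fitting. Cells were retrovirally engineered Ba/F3 lines whose growth depends on the mutant human ERBB2 in place of IL-3, plated at 3000 per well.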

[2] = target: Ba/F3 ERBB2-P780_Y781insGSP (Homo sapiens, UniProt P04626, DUP778-780, cells depend on it); test: Cell viability assay, Ba/F3 ERBB2-P780_Y781insGSP; assay type: cell-based, mouse; settings: 72 hours, CellTiter Glo, read-out: IC50, cell viability, Ba/F3 ERBB2-P780_Y781insGSP
Protocol: (§1) Cells were treated with compounds, and cell viability was measured as a metric of kinase inhibition.
(§2) The Ba/F3 cell line is IL-3-dependent mouse cell line derived from the C3H mouse strain. Ba/F3 cell lines were engineered to express human ERBB2 or EGFR kinases, rendering the cells IL-3 independent. The lines were generated via retroviral transduction utilizing a Moloney murine leukemia virus (MMLV) promoter, and constructs are stably integrated into the cell genome. The sequences of the ERBB2 and EGFR genes used were NCBI Reference Sequences NM_004448.3 and NM_005228.3, respectively.
(§3) Similarly, Ba/F3 cell lines engineered to express EGFR, ERBB2, or ERBB2 mutants were grown, harvested, counted and seeded at 3000 cells per well in 96-well plates. A subset of wells contained media only (low control, “LC”).
(§4) Table B1 provides the growth media and number of cells seeded per well for the each cell line.
Plates were placed in a 37° C., 5% CO2 incubator for 72 hours. Plates were then removed from the incubator and equilibrated for 15 minutes at room temperature. 40 μl of CellTiter Glo reagent (Promega) was added to measure the relative level of metabolically active cells by quantifying intracellular ATP concentrations. Plates were incubated for 30 minutes at room temperature, and luminescence was measured. […] Graphical curves were fitted using a nonlinear regression model with a sigmoidal dose response.

[3] = target: Ba/F3 ERBB2 wt (Homo sapiens, UniProt P04626); test: Cell viability assay, Ba/F3 ERBB2 wt; assay type: cell-based, mouse; settings: Ba/F3 ERBB2 wt cells, 72 hours, CellTiter Glo; read-out: IC50, cell viability, Ba/F3 ERBB2 wt
Protocol: as §1, §2, §3, §4
(§5) Plates were placed in a 37° C., 5% CO2 incubator for 72 hours. Plates were then removed from the incubator and equilibrated for 15 minutes at room temperature. 40 μl of CellTiter Glo reagent (Promega) was added to measure the relative level of metabolically active cells by quantifying intracellular ATP concentrations. Plates were incubated for 30 minutes at room temperature, and luminescence was measured. Percent viability was normalized to a vehicle control only using the following formula: % viability=100×(Lumsample−LumLC)/(LumHC−Lum^LC). Graphical curves were fitted using a nonlinear regression model with a sigmoidal dose response.

[4] = tested on: A431; test: Cell viability assay (CellTiter Glo), A431; assay type: cell-based; settings: Homo sapiens, A-431, A431 cells, 72 hours
[5] = target: Ba/F3 ERBB2-V777L (Homo sapiens, UniProt P04626, V777L, cells depend on it); test: Cell viability assay, Ba/F3 ERBB2-V777L; assay type: cell-based, mouse; settings: 72 hours, CellTiter Glo, read-out: IC50, cell viability, Ba/F3 ERBB2-V777L
Protocol: as §1, §2, §3, §4, §5

[6] = target: Ba/F3 ERBB2-T798M (Homo sapiens, UniProt P04626, T798M, cells depend on it); test: Cell viability assay, Ba/F3 ERBB2-T798M; assay type: cell-based, mouse; settings: 72 hours, CellTiter Glo, read-out: IC50, cell viability, Ba/F3 ERBB2-T798M
Protocol: as §1, §2, §3, §4, §5

[7] = target: Ba/F3 ERBB2-L755S (Homo sapiens, UniProt P04626, L755S, cells depend on it); test: Cell viability assay, Ba/F3 ERBB2-L755S; assay type: cell-based, mouse; settings: 72 hours, CellTiter Glo, read-out: IC50, cell viability, Ba/F3 ERBB2-L755S
Protocol: as §1, §2, §3, §4, §5

[8] = target: Ba/F3 ERBB2-G776VC (Homo sapiens, UniProt P04626, DELINS776-776VC, cells depend on it); test: Cell viability assay, Ba/F3 ERBB2-G776VC; assay type: cell-based, mouse; settings: 72 hours, CellTiter Glo, read-out: IC50, cell viability, Ba/F3 ERBB2-G776VC
Protocol: as §1, §2, §3, §4, §5

[9] = tested on: BT-474; test: Cell viability assay (CellTiter Glo), BT-474; assay type: cell-based; settings: Homo sapiens, read-out: IC50, cell viability, BT-474
[10] = target: Ba/F3 ERBB2-V777_G778insGC (Homo sapiens, UniProt P04626, INS778CG, cells depend on it); test: Cell viability assay, Ba/F3 ERBB2-V777_G778insGC; assay type: cell-based, mouse; settings: 72 hours, CellTiter Glo, read-out: IC50, cell viability, Ba/F3 ERBB2-V777_G778insGC
Protocol: as §1, §2, §3, §4, §5

[11] = target: Ba/F3 ERBB2-L869R (Homo sapiens, UniProt P04626, L869R, cells depend on it); test: Cell viability assay, Ba/F3 ERBB2-L869R; assay type: cell-based, mouse; settings: 72 hours, CellTiter Glo, read-out: IC50, cell viability, Ba/F3 ERBB2-L869R
Protocol: as §1, §2, §3, §4, §5

[12] = target: T1, phosphorylated ERBB2 (pERBB2) (Homo sapiens, UniProt P04626); test: Detection of phosphorylated ERBB2 (pERBB2) by ELISA in BT-474 cells; assay type: cell-based; settings: four hours incubation
T1 construct: endogenous in cells; host or cells: BT-474
Method in brief: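 Phospho-ERBB2 in lysates was quantified by sandwich ELISA (A450, TMB) after 4 h compound exposure at 37 °C of BT-474 cells seeded at 2.0×10^4 per well. Compounds tested at 10 µM to 0.01 nM final in four-fold steps; activity normalized to DMSO (0.1%) high and cell-free low controls.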

[13] = tested on: MDA-MB-175VII; test: Cell viability assay (CellTiter Glo), MDA-MB-175VII; assay type: cell-based; settings: Homo sapiens, read-out: IC50, cell viability, MDA MB 175VII
Protocol: as §1, §2, §3, §4, §5

[14] = target: Ba/F3 EGFR wt (Homo sapiens, UniProt P00533); test: Cell viability assay, Ba/F3 EGFR wt; assay type: cell-based, mouse; settings: Ba/F3 EGFR wt cells, 72 hours, CellTiter Glo; read-out: IC50, cell viability, Ba/F3 EGFR wt
Protocol: as §1, §2, §3, §4
Plates were placed in a 37° C., 5% CO2 incubator for 72 hours. Plates were then removed from the incubator and equilibrated for 15 minutes at room temperature. 40 μl of CellTiter Glo reagent (Promega) was added to measure the relative level of metabolically active cells by quantifying intracellular ATP concentrations. Plates were incubated for 30 minutes at room temperature, and luminescence was measured. […]

[15] = BT-474 cells, 72 hours, CellTiter Glo

Ba/F3 ERBB2 A775_G776insYVMA, sequence (P04626 with tags, fused parts or gaps DUP772-775): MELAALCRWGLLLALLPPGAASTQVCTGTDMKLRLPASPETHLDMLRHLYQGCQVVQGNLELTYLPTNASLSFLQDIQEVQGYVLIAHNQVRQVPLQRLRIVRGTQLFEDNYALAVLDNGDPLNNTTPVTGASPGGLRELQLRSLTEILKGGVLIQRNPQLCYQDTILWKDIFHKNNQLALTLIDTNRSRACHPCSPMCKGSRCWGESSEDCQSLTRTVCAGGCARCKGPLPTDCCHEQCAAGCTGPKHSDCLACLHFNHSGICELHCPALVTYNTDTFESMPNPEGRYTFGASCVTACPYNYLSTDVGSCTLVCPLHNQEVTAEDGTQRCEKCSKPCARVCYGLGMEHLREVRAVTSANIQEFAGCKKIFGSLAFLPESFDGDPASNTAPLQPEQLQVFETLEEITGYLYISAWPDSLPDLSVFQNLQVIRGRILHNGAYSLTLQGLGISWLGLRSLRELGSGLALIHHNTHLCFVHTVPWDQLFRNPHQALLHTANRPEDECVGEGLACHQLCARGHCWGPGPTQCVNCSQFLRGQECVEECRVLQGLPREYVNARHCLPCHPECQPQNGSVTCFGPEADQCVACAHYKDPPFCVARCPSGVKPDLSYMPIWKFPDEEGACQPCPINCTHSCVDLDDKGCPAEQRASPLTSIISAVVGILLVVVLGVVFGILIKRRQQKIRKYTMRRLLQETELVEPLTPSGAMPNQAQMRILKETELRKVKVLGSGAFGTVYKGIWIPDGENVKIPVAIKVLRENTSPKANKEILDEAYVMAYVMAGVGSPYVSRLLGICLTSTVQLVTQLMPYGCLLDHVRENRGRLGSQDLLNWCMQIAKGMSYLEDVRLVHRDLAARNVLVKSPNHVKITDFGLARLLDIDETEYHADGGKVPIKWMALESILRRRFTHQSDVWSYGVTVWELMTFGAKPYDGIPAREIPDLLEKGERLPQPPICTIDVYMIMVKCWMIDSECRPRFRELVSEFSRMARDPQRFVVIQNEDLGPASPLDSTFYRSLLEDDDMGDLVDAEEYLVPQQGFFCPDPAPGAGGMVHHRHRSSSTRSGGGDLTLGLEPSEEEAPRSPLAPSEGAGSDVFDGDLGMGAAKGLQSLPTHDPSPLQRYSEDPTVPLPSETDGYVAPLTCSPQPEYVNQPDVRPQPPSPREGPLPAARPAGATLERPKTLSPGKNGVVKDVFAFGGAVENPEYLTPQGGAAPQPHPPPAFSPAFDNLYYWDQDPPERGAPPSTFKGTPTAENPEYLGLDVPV
Ba/F3 ERBB2-V777_G778insGC, sequence (P04626 with tags, fused parts or gaps INS778CG): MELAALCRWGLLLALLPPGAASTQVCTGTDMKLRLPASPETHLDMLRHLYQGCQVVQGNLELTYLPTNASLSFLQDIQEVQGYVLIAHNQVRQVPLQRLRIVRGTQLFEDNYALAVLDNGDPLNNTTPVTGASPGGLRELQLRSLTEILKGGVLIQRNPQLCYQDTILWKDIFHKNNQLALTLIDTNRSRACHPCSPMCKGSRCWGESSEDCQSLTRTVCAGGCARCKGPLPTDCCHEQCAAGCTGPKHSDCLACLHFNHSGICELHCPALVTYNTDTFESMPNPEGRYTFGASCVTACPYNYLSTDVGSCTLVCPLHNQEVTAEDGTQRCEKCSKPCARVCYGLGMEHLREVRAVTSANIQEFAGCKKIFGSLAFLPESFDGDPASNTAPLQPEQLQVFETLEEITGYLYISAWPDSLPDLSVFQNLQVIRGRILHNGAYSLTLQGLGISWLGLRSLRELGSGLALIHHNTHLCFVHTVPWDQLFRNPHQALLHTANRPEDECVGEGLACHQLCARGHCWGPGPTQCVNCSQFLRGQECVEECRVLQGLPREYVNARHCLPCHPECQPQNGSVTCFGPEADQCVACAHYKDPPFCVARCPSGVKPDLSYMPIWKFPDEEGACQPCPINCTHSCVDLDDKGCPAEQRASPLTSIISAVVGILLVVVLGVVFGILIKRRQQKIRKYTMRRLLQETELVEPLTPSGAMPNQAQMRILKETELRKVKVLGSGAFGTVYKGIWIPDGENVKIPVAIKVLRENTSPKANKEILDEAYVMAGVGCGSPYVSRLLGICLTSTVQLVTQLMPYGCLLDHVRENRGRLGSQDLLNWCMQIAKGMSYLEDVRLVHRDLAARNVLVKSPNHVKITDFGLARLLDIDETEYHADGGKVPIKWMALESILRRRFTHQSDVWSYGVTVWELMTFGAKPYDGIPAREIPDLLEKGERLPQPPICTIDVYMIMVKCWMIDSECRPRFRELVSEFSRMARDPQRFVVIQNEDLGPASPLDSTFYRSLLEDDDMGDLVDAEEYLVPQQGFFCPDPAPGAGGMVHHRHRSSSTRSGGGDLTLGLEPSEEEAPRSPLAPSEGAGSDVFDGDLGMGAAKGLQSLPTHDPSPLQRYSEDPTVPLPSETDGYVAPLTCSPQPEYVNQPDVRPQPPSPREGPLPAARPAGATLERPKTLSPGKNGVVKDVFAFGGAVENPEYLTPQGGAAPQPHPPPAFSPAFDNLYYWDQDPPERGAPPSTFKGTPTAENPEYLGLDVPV
Ba/F3 ERBB2-L869R, sequence (P04626 whole entry L869R): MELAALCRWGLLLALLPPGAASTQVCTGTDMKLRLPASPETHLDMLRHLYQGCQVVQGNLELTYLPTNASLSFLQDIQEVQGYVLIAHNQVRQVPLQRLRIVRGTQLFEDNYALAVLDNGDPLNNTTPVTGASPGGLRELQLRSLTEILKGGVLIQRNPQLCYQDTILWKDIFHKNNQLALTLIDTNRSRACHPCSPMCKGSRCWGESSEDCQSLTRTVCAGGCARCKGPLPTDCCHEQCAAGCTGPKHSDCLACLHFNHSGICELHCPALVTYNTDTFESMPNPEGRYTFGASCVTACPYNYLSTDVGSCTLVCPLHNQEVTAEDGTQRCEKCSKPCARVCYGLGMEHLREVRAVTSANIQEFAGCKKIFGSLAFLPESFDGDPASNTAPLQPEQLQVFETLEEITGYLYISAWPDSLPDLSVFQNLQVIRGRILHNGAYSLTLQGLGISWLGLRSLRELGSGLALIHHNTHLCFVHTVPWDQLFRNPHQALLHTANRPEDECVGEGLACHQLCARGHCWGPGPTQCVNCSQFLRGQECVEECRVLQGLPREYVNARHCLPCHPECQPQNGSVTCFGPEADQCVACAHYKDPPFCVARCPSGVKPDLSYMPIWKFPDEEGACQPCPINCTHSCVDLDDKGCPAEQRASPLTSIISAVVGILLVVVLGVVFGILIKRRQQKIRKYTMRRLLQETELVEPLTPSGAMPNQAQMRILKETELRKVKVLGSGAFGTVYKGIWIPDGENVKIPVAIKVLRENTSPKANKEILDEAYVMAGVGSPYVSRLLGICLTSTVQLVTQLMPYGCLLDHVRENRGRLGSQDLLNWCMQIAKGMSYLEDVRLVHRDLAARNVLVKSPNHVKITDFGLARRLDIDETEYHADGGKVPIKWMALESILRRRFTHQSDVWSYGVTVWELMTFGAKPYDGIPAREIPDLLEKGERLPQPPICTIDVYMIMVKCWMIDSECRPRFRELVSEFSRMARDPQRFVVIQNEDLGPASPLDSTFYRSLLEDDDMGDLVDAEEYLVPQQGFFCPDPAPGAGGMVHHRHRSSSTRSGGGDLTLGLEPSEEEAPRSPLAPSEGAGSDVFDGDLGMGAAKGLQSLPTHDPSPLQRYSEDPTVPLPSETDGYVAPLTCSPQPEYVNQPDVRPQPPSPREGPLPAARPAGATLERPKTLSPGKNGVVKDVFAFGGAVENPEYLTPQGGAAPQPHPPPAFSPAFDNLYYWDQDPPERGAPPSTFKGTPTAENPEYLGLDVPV
Ba/F3 ERBB2-P780_Y781insGSP, sequence (P04626 with tags, fused parts or gaps DUP778-780): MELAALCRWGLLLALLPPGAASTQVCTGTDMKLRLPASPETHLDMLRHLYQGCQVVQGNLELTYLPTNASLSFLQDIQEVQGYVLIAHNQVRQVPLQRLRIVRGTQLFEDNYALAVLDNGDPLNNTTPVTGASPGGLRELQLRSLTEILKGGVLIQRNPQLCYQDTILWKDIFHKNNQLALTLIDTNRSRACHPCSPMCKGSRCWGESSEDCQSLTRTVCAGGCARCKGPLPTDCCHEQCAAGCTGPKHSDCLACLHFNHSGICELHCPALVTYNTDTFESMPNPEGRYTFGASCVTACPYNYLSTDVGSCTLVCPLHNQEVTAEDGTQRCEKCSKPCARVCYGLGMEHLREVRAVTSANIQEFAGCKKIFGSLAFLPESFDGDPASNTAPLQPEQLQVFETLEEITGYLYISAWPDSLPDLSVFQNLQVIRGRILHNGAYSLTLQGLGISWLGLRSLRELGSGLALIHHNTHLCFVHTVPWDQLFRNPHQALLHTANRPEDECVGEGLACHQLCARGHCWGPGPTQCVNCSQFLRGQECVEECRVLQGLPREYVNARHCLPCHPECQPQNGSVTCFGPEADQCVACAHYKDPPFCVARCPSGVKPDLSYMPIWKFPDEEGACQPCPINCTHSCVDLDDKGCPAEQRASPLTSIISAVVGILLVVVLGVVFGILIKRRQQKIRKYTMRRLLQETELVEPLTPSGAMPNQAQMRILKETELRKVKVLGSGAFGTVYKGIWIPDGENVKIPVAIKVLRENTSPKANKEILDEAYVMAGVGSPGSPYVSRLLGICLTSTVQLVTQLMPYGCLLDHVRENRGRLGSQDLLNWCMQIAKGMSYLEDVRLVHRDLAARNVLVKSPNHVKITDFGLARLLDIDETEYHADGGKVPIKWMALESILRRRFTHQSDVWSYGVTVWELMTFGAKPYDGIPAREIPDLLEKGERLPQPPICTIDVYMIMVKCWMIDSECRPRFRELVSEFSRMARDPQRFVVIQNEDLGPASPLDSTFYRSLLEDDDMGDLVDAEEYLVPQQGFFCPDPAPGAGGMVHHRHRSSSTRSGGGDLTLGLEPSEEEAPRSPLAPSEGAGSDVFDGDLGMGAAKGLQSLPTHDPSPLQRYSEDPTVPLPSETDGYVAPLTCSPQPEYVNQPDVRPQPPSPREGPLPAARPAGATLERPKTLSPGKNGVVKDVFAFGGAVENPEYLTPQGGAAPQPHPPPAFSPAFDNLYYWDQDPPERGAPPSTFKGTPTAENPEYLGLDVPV

C=C1CCN(c2ccc3ncnc(Nc4ccc(Oc5ccc(C)nc5)c(C)c4)c3c2)C1=O [Compound 3, 1-[4-([3-methyl-4-[(6-methylpyridin-3-yl)oxy]phenyl]amino)quinazolin-6-yl]-3-methylidenepyrrolidin-2-one]
GI50 [1]: 202 nM | GI50 [2]: 13 nM | GI50 [3]: 11 nM | IC50 [4]: 1140 nM | GI50 [5]: 4.7 nM | GI50 [6]: 656 nM | GI50 [7]: 172 nM | GI50 [8]: 40 nM | IC50 [9, 15]: 19.7 nM | GI50 [10]: 3.8 nM | GI50 [11]: 47 nM

C=C1CCN(c2ccc3ncnc(Nc4ccc(Oc5ccn6ncnc6c5)c(C)c4)c3c2F)C1=O [Compound 7, 1-[5-fluoro-4-[(3-methyl-4-[[1,2,4]triazolo[1,5-a]pyridin-7-yloxy]phenyl)amino]quinazolin-6-yl]-3-methylidenepyrrolidin-2-one]
GI50 [1]: > 1000 nM | IC50 [4]: > 10000 nM | IC50 [12]: 109 nM | IC50 [9, 15]: 31.7 nM

C=C1CCN(c2ccc3ncnc(Nc4ccc(Oc5ccn(C(F)F)c(=O)c5)c(C)c4)c3c2)C1=O [Compound 12, 1-(difluoromethyl)-4-(2-methyl-4-[[6-(3-methylidene-2-oxopyrrolidin-1-yl)quinazolin-4-yl]amino]phenoxy)pyridin-2-one]
GI50 [1]: 113 nM | IC50 [4]: 7650 nM | IC50 [9, 15]: 20.4 nM

CCOc1cc2ncc(C#N)c(Nc3ccc(OCc4ccccn4)c(Cl)c3)c2cc1NC(=O)/C=C/CN(C)C [Neratinib, neratinib, reference compound]
IC50 ([9]; BT-474, 72 h): 2.2 nM | IC50 ([13]; MDA-MB-175-VII, 72 h): 7.1 nM

Cc1cc(Nc2ncnc3ccc(NC4=NC(C)(C)CO4)cc23)ccc1Oc1ccn2ncnc2c1 [Tucatinib, tucatinib, reference compound]
IC50 [4]: > 10000 nM | GI50 [14]: > 10000 nM | IC50 ([13]; MDA MB 175VII cells, 72 hours, CellTiter Glo): 89 nM
